Legend:
Type in all cases: cell-based, human
[1] = test system: HE cells; test: Colony forming unit assay of subcultured HE cells; conditions: for ratio of CFU-E colonies to the sum of CFU-G, CFU-GM and CFU-M colonies: 6 days, compared to the control
Experimental: Subcultured HE cells were treated with StemPro Accutase Cell Dissociation Reagent for 2 minutes at 37° C. and dissociated cells were resuspended in 3 ml Methocult H4230 (STEMCELL Technologies, France) (prepared according to manufacturer's instructions, with 20 mL Iscove's Modified Dulbecco's Medium containing 2.5 μg hSCF, 5 μg GM-CSF, 2.5 μg IL-3 and 500 U EPO). Each mixture was divided onto 2 wells of a non-tissue culture treated 6-well plate. Following a 12-day incubation in a humidified incubator at 37° C., 5% CO2, 20% O2, colonies were morphologically distinguished and scored. For globin analysis, colonies in Methocult wells were harvested with PBS, washed thoroughly and frozen in RLT buffer with β-mercaptoethanol. Following RNA extraction and RT (Qiagen), gene expression was assessed with taqman probes by q-PCR. The taqman probes used in this study are HBA1/2 (Hs00361191_g1), HBE1 (Hs00362216_m1), HBG2/1 (Hs00361131_g1) and KLF1 (Hs00610592_m1).

[2] = test system: HE cells; test: HE cell subculture with compounds, flow cytometry
[3] = test system: HE cells; test: single-cell RNAseq of treated HE cells at day 2
Experimental: Sorted HE, EHT and HSC-like cells as well magnetically selected (Miltenyi Biotec) cord blood CD34^+ cells were plated onto Matrigel (16 μg/cm^2, Corning)-coated 96-well flat bottom plates in HE medium (Ditadi, A. & Sturgeon, C. M. Methods 101, 65-72 (2016)) with 1% penicillin-streptomycin and kept in a humidified incubator at 37° C., 5% CO2, 4% O2 overnight. The following day (day 0), wells were washed twice with PBS and fresh HE medium was added, together with UK5099 (10 μM) or DCA (3 mM), where indicated. On day 1 and 2 (as indicated), cells were washed twice with PBS 0.04% UltraPure BSA and collected after a 2-minute incubation at 37° C. with StemPro Accutase Cell Dissociation Reagent. Cells were spun down, resuspended in PBS 0.04% UltraPure BSA, counted (yield between 8,000-18,000 cells) and library preparation was conducted according to the Chromium Single Cell 3′ Reagent kit v3 instructions (10× Genomics). Sequencing was performed on a NOVASeq 6000 from Illumina with the run parameters (28-8-0-91) recommended by 10× Genomics with a final loading concentration of 300 pM of the pooled libraries. Human Umbilical Cord Blood samples were collected from Skane University Hospital (Lund and Malmo) and Helsingborg Hospital with informed consents according to guidelines approved by the regional ethical committee.
The data was processed and analyzed using Seurat v3.1.0, where cells were allowed to have up to 20% mitochondrial reads prior to log-normalization and finding the top 500 variable genes using the “vst” method. Cell cycle scores were calculated and the data was scaled regressing on mitochondrial content and the difference of the S and G2M score. Principal components were calculated prior to calculating a UMAP. Pseudotime trajectories describing two developmental routes were identified in our EHT dataset using Slingshot (Street, K. et al. BMC Genomics 19, 477 (2018)) along which the cells were ordered. The cells were then binned along each trajectory where the cell-type composition of each bin was calculated as percentages. Cord blood CD34^+ cells were mapped to our data and labeled using scCoGAPS (Stein-O'Brien, G. L. et al. Cell Syst 8, 395-411.e8 (2019)). CS13 data from Zeng et al. (Zeng, Y. et al. Cell Res 1-14 (2019)) was read and processed to make a UMAP from which the cells they name as “AEC” and “Hem” were identified. These 99 cells were mapped to our data and labeled using SCMAP (Kiselev, V. Y. et al. Nat Methods 15, 359-362 (2018)). Our EHT data was mapped to data from Zeng et al. (Zeng, Y. et al. Cell Res 1-14 (2019)) and vice versa using scCoGAPS where 10 patterns were identified in each data set and then projected to each other using projectR. Each cell was assigned to the group that achieved the highest weight. An overview showing the relationship between cell-types and patterns was done by forming a contingency table on which correspondence analysis was performed using the ca package for R. Differentially expressed genes were found using the FindAllMarkers function. Cell numbers for day 1 samples are as follows: HE=1451, EHT=1523, HSC-like=732. […] All assessed endothelial and hematopoietic genes were previously used in several publications to validate the EHT process (Zhou, F. et al. Nature 533, 487-492 (2016); Swiers, G. et al. Nat Commun 4, 2924 (2013); Ng, E. S. et al. Nature Biotechnology 34, 1168-1179 (2016) and Guibentif, C. et al. Cell Reports 19, 10-19 (2017)). […]

[4] = test system: HE cells; test: GPA+ clones from single HE cells on OP9-DL1 stroma; conditions: of 552 single cells per condition, day 14; control 9
Source text: In some examples to further assess the effect of pyruvate manipulation on a single cell level, single HE cells were sorted onto OP9-DL1 stroma and GPA^+ clones were scored at day 14. From a total of 552 single cells per condition, 12 GPA^+ clones were detected in the UK5099-treated condition and 7 GPA^+ clones in the DCA-treated condition as compared to 9 GPA^+ clones in the control (FIG. 14, d).

[5] = 3 or 6 days of UK5099, vs untreated

Compound: O=C(O)C(Cl)Cl [DCA, dichloroacetate]
- ratio of CFU-E colonies to the sum of CFU-G, CFU-GM and CFU-M colonies [1]: more than 3 -fold lower
- decrease in CD43+GPA+ population ([2]; day 6 of HE subculture, DCA 3 mM): 50%
- increase in the percentage of CD43+CD45+ cells ([2]; deriving from HE, day 6, DCA 3 mM): 80%
- less cells in cluster 7 compared to the control ([3]; day 2, DCA 3 mM): 35%
- GPA+ clones [4]: 7

Compound: N#C/C(=C\c1cn(-c2ccccc2)c2ccccc12)C(=O)O [UK5099]
- erythroid colony (CFU-E) formation [1, 5]: significantly increased
- granulocyte and macrophage colonies (CFU-G, GM and M) [1, 5]: decreased
- ratio of CFU-E colonies to the sum of CFU-G, CFU-GM and CFU-M colonies [1]: 20 -fold higher
- proliferation of CD45+ cells deriving from HE ([2]; CTV, UK5099 10 μM or DCA 3 mM): did not have an effect
- frequency of HSC-like cells deriving from HE ([2]; UK5099 10 μM or DCA 3 mM): did not have an effect
- proliferation of the GPA+ population deriving from HE ([2]; day 3, CTV, UK5099 10 μM or DCA 3 mM): No differences
- HE-derived CD43+GPA+ cell output ([2]; day 3 of subculture vs control, BPTES 25 μM, UK5099 10 μM, 1-AA 4 mM, DCA 3 mM): striking increase
- levels of total CD43+ cells ([2]; day 6, treated vs untreated): unchanged
- proliferation by EdU incorporation ([2]; days 1 and 2 of subculture, 24 h pulse): no differences
- decrease in the CD43+CD45+ population ([2]; deriving from HE cells, day 6, UK5099 10 μM): 2 -fold
- expression of LSD1, GFI1 and GFI1B ([3]; UK5099-treated compared to DCA-treated cells): higher levels
- average expression levels of erythroid lineage genes (RYK, KLF3, TAL1, GATA2, ZFPM1, KLF1, NFE2, ANK1, HBQ1) ([3]; clusters 6 and 7, vs untreated HE cells): higher
- more cells in cluster 7 compared to the control ([3]; day 2, UK5099 10 μM): 38%
- percentage of cells in cluster 6 ([3]; day 2, UK5099 10 μM or DCA 3 mM): constant between conditions
- GPA+ clones [4]: 12
